Data on 2 compounds can be found in patent EP0828750B1, “PALLADIUM CATALYZED NUCLEOSIDE MODIFICATION METHODS USING NUCLEOPHILES AND CARBON MONOXIDE” (EC Technology LLC, priority 1995, dated 1996).

Test [1] has as its system human cytomegalovirus (CMV). The test is described as follows: Plaque reduction assay using semi-solid overlay (EC50 determination). In kind it is cell-based. As to conditions: for EC50: Human betaherpesvirus 5, 336 h, concentration required to inhibit viral cytopathogenicity by 50%, CMV plaques in HFF, agarose overlay, 14 days, drug range 100 to 0.03 µg/ml; for SI: Selectivity Index, SI = IC50/EC50. The protocol: (§1) Newborn human foreskins were obtained immediately post-circumcision and placed in minimal essential medium (MEM) supplemented with vancomycin, fungizone, penicillin and gentamycin (all present at standard concentrations) and maintained for four hours under tissue culture conditions (37°C, 5% CO2). Supplemented MEM was then removed and the foreskin material macerated. Tissue fragments were then washed exhaustively (using supplemented MEM) to remove residual erythrocyte contamination.
The erythrocyte-free cell fragments were then exposed to trypsin solution (0.25%) for 15 min with continuous stirring. Tissue fragments were then allowed to settle out of suspension and the supernatant collected and passed through sterile cheesecloth into a flask containing MEM and 10% fetal bovine serum (FBS). The cheesecloth was washed with an additional volume of MEM containing 10% FBS (The flask containing MEM and 10% FBS was maintained on ice throughout the trypsinization procedure). The trypsinization procedure was repeated using fresh trypsin solution, until no additional cell removal from tissue fragments was observed. Cells removed by this process are predominantly human foreskin fibroblasts (HFF).
Cells contained in MEM with 10% FBS were pelleted by centrifugation (≅ 1000 RPM, 4°C, 10 min), the supernatant discarded and the pelleted cells suspended in a minimal volume of MEM with 10% FBS. HFF isolates were then plated into T-25 tissue culture flasks (the number of primary culture flasks used was based on the volume of the recovered cell pellet). HFF isolates were then maintained under tissue culture conditions (37°C, 5% CO2) until confluent. Primary cultures of HFF were sequentially expanded into larger format culture flasks using standard tissue culture procedures. HFF were maintained in the presence of vancomycin and fungizone through passage four.
HFF are plated into 6-well tissue culture plates and maintained under tissue culture conditions for approximately two days prior to use. On the date of assay, experimental drug solutions are prepared as 2X concentrations in 2X MEM. Serial dilutions of experimental drug are then performed (1:5) using 2X MEM. The approximate concentration range for experimental agents being 200 to 0.06 µg/ml. Each drug or control solution was then diluted 1:1 with 0.8% agarose solution. Following dilution with agarose solution, the final experimental drug concentration range was 100 to 0.03 µg/ml, with a final agarose overlay concentration of 0.4%. Viral material (CMV) was diluted in MEM with 10% FBS to yield a concentration of virus producing 20-30 plaques per well. […]
Following incubations, HFF were stained for 4-6H with a 1.5% solution of neutral red. The neutral red/agarose/MEM mixture is aspirated and viral plaques counted using a 10X steriomicroscope. […]
On the technique in general: Plaque reduction counts the foci of infection that form in a cell layer.

For test [2], the system named is human foreskin fibroblasts (HFF). Briefly: Cytotoxicity assay (IC50 determination), crystal violet staining. In kind it is cell-based. The settings on record: Fibroblast, 336 h, concentration required to inhibit cellular proliferation by 50%, 96-well, 14 day incubation, crystal violet absorbance 620nm. How it is done:
as §1
The erythrocyte-free cell fragments were then exposed to trypsin solution (0.25%) for 15 min with continuous stirring. […]
HFF were seeded into 96-well tissue culture plates at a concentration of 2.5x10^4 cells/ml (100µl MEM with 10% FBS was used as the culture medium) and maintained under tissue culture conditions for 24H prior to experimentation. […] To the first row of each 96-well plate, 125 µl of control media or experimental drug CT1146-26 or CT1146-28 (initial concentration determined by the overall concentration range desired) was added in triplicate wells. […]
Following the incubation period, medium was removed from all wells and the cells stained with 0.1% crystal violet solution for 30 min followed by several wash cycles to remove residual stain. The crystal violet stained plates were then allowed to air dry for 24H prior to reading well absorbance values (620nm) using a Skatron plate reader. […]

Structures are written as SMILES.

As usually defined, the EC50 is the concentration at which the effect is half-maximal. A high value points to a less potent agent. Broadly, the IC50 is the midpoint of a concentration-inhibition curve. Low readings indicate higher potency, high ones lower potency.

In test [1], `CCCCNC(=O)c1cn(C2OC(COP(=O)(O)O)C(O)C2O)c(=O)nc1N` (stereo not drawn) [CT1146-28] gave an EC50 below 0.03 µg/mL and an SI above 3333. The same compound gave an IC50 in test [2] above 100 µg/mL.

In the case of `CC(C)NC(=O)c1cn(C2OC(COP(=O)(O)O)C(O)C2O)c(=O)nc1N` (stereo not drawn) [CT1146-26], in test [1], the EC50 was below 0.03 µg/mL and the SI is above 3333. The IC50 in test [2] is above 100 µg/mL.
